Results published in patent US11725187B2, “Selection of human hematopoetic stem cells using EPCR” (UNIVERSITE DE MONTREAL, priority 2016, dated 2023).

Test system: EPCR
Test: EPCR surface expression on cultured CD34+ cells by flow cytometry
Method: Fresh or cultured CB cells were labelled or sorted for different HSPC phenotypes using the following antibodies. […] Cells were analyzed on a BD Canto flow cytometer, and cell sorting (under low pressure conditions) was conducted on a BD Aria II cell sorter.

| SMILES | increase in proportion of EPCR+ cells / EPCR expression (CB, mPB or BM CD34+ cells, 7 days, UM171 38 nM, SR1 1000 nM (FIG. 2)) | enrichment / expansion of EPCR+ population of cells (CD34+ cells (FIG. 17)) |
| --- | --- | --- |
| CC(C)n1cnc2c(NCCc3ccc(O)cc3)nc(-c3csc4ccccc34)nc21 [SR1] | small increase | – |
| Nc1cccc2c1CN(C1CCC(=O)NC1=O)C2=O (centres unmarked) [lenalidomide] | – | enriches |
